Key:
Experiment in all cases: relative viability (nuclei count vs DMSO), 5 days (fraction); higher = more cells survive
Afatinib + Trametinib = compound: CN(C)C/C=C/C(=O)Nc1cc2c(Nc3ccc(F)c(Cl)c3)ncnc2cc1O[C@H]1CCOC1 [Afatinib] + CC(=O)Nc1cccc(-n2c(=O)n(C3CC3)c(=O)c3c(Nc4ccc(I)cc4F)n(C)c(=O)c(C)c32)c1 [Trametinib] (partner 0.02 µM)
Procedure, shortened: (§1)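 A single step with final 0.05% Triton X-100, 1% formaldehyde and 1 ug/ml Hoechst fixed the cells and stained nuclei 5 days after treatment. Lung cancer cell lines in 1536-well plates had been treated by pin tool the day after seeding with one drug alone or a fixed anchor-drug dose plus five library-drug doses (not always all listed) in √10 steps, and nuclei were counted on 4× images. Relative viability is the ratio of nuclei in treated wells to nuclei in vehicle wells, taken as the median of duplicate plates.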

Afatinib + Lapatinib = compound: CN(C)C/C=C/C(=O)Nc1cc2c(Nc3ccc(F)c(Cl)c3)ncnc2cc1O[C@H]1CCOC1 [Afatinib] + CS(=O)(=O)CCNCc1ccc(-c2ccc3ncnc(Nc4ccc(OCc5cccc(F)c5)c(Cl)c4)c3c2)o1 [Lapatinib] (partner 2 µM)
Procedure, shortened: as §1

Afatinib + Phenformin = compound: CN(C)C/C=C/C(=O)Nc1cc2c(Nc3ccc(F)c(Cl)c3)ncnc2cc1O[C@H]1CCOC1 [Afatinib] + N=C(N)NC(=N)NCCc1ccccc1 [Phenformin] (partner 250 µM)
Procedure, shortened: as §1

Afatinib + Olaparib = compound: CN(C)C/C=C/C(=O)Nc1cc2c(Nc3ccc(F)c(Cl)c3)ncnc2cc1O[C@H]1CCOC1 [Afatinib] + O=C(c1cc(Cc2n[nH]c(=O)c3ccccc23)ccc1F)N1CCN(C(=O)C2CC2)CC1 [Olaparib] (partner 8 µM)
Procedure, shortened: as §1

| Cell Line | relative viability (Afatinib + Trametinib; first compound 0.005 µM) | relative viability (Afatinib + Trametinib; first compound 0.01581 µM) | relative viability (Afatinib + Trametinib; first compound 0.05 µM) | relative viability (Afatinib + Trametinib; first compound 0.1581 µM) | relative viability (Afatinib + Trametinib; first compound 0.5 µM) | relative viability (Afatinib + Lapatinib; first compound 0.005 µM) | relative viability (Afatinib + Lapatinib; first compound 0.01581 µM) | relative viability (Afatinib + Lapatinib; first compound 0.05 µM) | relative viability (Afatinib + Lapatinib; first compound 0.1581 µM) | relative viability (Afatinib + Lapatinib; first compound 0.5 µM) | relative viability (Afatinib + Phenformin; first compound 0.005 µM) | relative viability (Afatinib + Phenformin; first compound 0.01581 µM) | relative viability (Afatinib + Phenformin; first compound 0.05 µM) | relative viability (Afatinib + Phenformin; first compound 0.1581 µM) | relative viability (Afatinib + Phenformin; first compound 0.5 µM) | relative viability (Afatinib + Olaparib; first compound 0.005 µM) | relative viability (Afatinib + Olaparib; first compound 0.01581 µM) | relative viability (Afatinib + Olaparib; first compound 0.05 µM) | relative viability (Afatinib + Olaparib; first compound 0.1581 µM) | relative viability (Afatinib + Olaparib; first compound 0.5 µM) |
| --- | --- | --- | --- | --- | --- | --- | --- | --- | --- | --- | --- | --- | --- | --- | --- | --- | --- | --- | --- | --- |
| LU99A | 0.635 | 0.569 | 0.589 | 0.509 | 0.552 | 1.08 | 1.07 | 1.02 | 0.979 | 0.871 | 0.837 | 0.851 | 0.891 | 0.944 | 0.828 | 0.253 | 0.266 | 0.249 | 0.248 | 0.264 |
| HCC-366 | 0.361 | 0.247 | 0.353 | 0.293 | 0.29 | 1.03 | 1.06 | 1.03 | 1.05 | 1.02 | 0.588 | 0.61 | 0.611 | 0.632 | 0.595 | 0.299 | 0.38 | 0.391 | 0.3 | 0.367 |
| EKVX | 0.255 | 0.246 | 0.216 | 0.16 | 0.162 | 0.191 | 0.18 | 0.188 | 0.208 | 0.198 | 0.218 | 0.222 | 0.215 | 0.129 | 0.197 | 0.602 | 0.687 | 0.534 | 0.283 | 0.227 |
| NCI-H522 | 0.58 | 0.781 | 0.79 | 0.667 | 0.545 |  |  |  |  |  | 0.729 | 0.584 | 0.643 | 0.532 | 0.698 | 0.573 | 0.726 | 0.639 | 0.532 | 0.464 |
| NCI-H1755 | 0.767 | 0.792 | 0.807 | 0.679 | 0.792 | 1.11 | 1.03 | 1.09 | 1.04 | 1.07 | 0.677 | 0.663 | 0.823 | 0.578 | 0.617 | 0.906 | 0.857 | 0.921 | 0.864 | 0.813 |
| NCI-H647 | 0.554 | 0.465 | 0.451 | 0.468 | 0.438 | 1.09 | 0.948 | 1.16 | 1.24 | 1.2 | 0.664 | 0.481 | 0.57 | 0.692 | 0.445 | 0.559 | 0.563 | 0.526 | 0.414 | 0.552 |
| LC-2-ad | 0.954 | 0.914 | 0.92 | 0.832 | 0.87 | 1.07 | 0.991 | 1.07 | 0.961 | 0.925 | 0.66 | 0.514 | 0.585 | 0.541 | 0.52 | 0.752 | 0.754 | 0.724 | 0.707 | 0.701 |
| NCI-H1793 | 0.436 | 0.377 | 0.432 | 0.345 | 0.401 | 0.679 | 0.733 | 0.962 | 0.995 | 0.467 | 0.244 | 0.316 | 0.325 | 0.273 | 0.321 | 0.659 | 0.633 | 0.461 | 0.398 | 0.582 |

From the supplement of paper PMC10307832
